The term ED50 denotes the midpoint of the dose-response relation.

Where a name gives a salt, the structure may show the parent alone. Read-outs that look alike come from different tables or passages of the source.

Here are results for 17 compounds from US6303603A, “3-oxo-2(H)-1,2,4-triazine derivatives as ligands of 5 HT1A receptors” (Pierre Fabre Medicament, priority 1997, dated 2001).

For assay [1], the target named is T1, 5-HT1A (Rattus norvegicus, UniProt P19327).
T1 sequence (P19327 1-422): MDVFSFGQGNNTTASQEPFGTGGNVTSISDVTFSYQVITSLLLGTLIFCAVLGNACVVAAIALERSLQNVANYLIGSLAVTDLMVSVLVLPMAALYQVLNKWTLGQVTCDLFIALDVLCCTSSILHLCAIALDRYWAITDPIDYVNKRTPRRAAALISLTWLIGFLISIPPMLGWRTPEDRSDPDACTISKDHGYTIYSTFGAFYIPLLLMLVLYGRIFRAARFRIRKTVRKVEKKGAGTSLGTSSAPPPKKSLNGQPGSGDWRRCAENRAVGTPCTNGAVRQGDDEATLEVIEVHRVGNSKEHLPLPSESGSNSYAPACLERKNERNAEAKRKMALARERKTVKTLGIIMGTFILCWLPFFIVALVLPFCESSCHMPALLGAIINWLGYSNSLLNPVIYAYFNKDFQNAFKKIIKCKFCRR
Briefly: Serotoninergic (5-HT) syndrome. It is filed as in vivo, male rat (Sprague-Dawley). Also noted: carried out with the male rat (Sprague-Dawley); from tissue; host or cells: whole living rat (in vivo). As to conditions: po, male rat. As to the method:
The central activity of the compounds of the invention was evaluated by their ability to provoke the 5-HT syndrome, which is characterized by:
an alternating bending and stretching of the forepaws (reciprocal fore-paw treading: FPT)
the retraction of the lower lip (lower lip on: LLR)
a position or the ventral surface of the animal is incobtact with the ground and the hind paws extended (flat body posture: FBP).
The experiments on the evaluation of the 5-HT syndrome are carried out with the male rat (Sprague-Dawley) according to the technique described by F. C. Colpaert et al. (Drug. Dev. Res, 26, 21-48, 1992) and M. S. Kleven et al. (J.P.E.T., 282, 747-759, 1997).

In a further assay the target is α1-adrenergic receptor. Briefly: Binding to the α1-adrenergic receptor (displacement of [3H]Prazosin). Also noted: species or system rat (male Sprague-Dawley), brain cortex. The following applies: rat cortex, 30 min, 23 °C, mean of at least 3 experimentations. As to the method: (§1) Binding to the 5-HT1A, D2 dopaminergic and α1-adrenergic receptors:
(§2) Brains from male Sprague-Dawley 180-200 g rats [Ico: OFA SD (I.O.P.S. Caw); Iffa Credo, France], maintained at -70° C., were used in all the studies.
(§3) The affinity of the products for the various receptors was determined by displacement of radioactive ligands under the conditions summarized in Table 1.
(§4) The reaction is halted by rapid filtration, under vacuum, through Whatman GF/B filters and the tubes are rinsed with 2×5 ml of Tris-HCl 50 mM, pH 7.4, buffer at 25° C. The radioactivity collected on the filter is analyzed by liquid scintillation after addition of 4 ml of liquid scintillant (Emulsifier Safe, Packard). All the experiments are carried out in triplicate.
(§5) The inhibition constants (Ki) of the products are estimated from the displacement experimentations by using the EBDA (equilibrium binding data analysis) Radlig version 4 nonlinear regression program (Biosoft, Cambridge, UK; McPherson, 1985).
(§6) The pKi (-log Ki) values are given in the form of the mean ± SEM of at least 3 experimentations (Table 2).
Experimental conditions for binding to the receptors
[^3 H] ligand Incubation binding
Concen- Tissue Temper- Concen-
Binding KD tration Concen- Time ature tration
site (nM) (nM) Type tration (min) (° C.) Product (μM)
Buffers: (A) Tris HCl 50 mM pH 7.4, pargyline 10 μM, CaCl2 4 mM,
0.1% ascorbic acid; (B) Tris HCl 50 mM pH 7.4, NaCl 120 mM, KCl 5 mM; (C)
(In general: Displacement assays read how much labelled ligand stays bound in the presence of the test substance.)

A further assay addresses T2, D2 dopaminergic receptor (Rattus norvegicus, UniProt P61169).
T2 construct: Brains from male Sprague-Dawley 180-200 g rats; tissue Iffa Credo, France (animals); host or cells: rat brain striatum
Nature of the assay: Binding to the D2 dopaminergic receptor (displacement of [3H]YM-09151-2). Also noted: species or system rat (male Sprague-Dawley), brain striatum. As to conditions: read-out: pKi D2 (converted). As to the method: as §1, §2, §3, §4, §5, §6

Assay [2] deals with T1, 5-HT1A. Briefly: Binding to the 5-HT1A receptor (displacement of [3H]8-OH-DPAT). The arrangement: Brains from male Sprague-Dawley 180-200 g rats; tissue Iffa Credo, France (animals); host or cells: rat brain cortex; species or system rat (male Sprague-Dawley), brain cortex. As to conditions: for Ki: read-out: pKi 5-HT1A (converted). As to the method: as §1, §2, §3, §4, §5, §6

Assay [3] can be described thus: Antidepressant activity: forced swimming test. It is filed as in vivo. The following applies: po, percentage of animals with significant decrease vs control (p<0.05), read-out: ED50 (decrease in the immobility time).
The mark [4] stands for this setting: flat body posture (FBP), read-out: 5-HT syndrome ED50 FBP.
[5] abbreviates: lower lip retraction (LLR), read-out: 5-HT syndrome ED50 LLR.
The mark [6] stands for this setting: reciprocal fore-paw treading (FPT), read-out: 5-HT syndrome ED50 FPT.

T2 sequence (P61169 whole entry): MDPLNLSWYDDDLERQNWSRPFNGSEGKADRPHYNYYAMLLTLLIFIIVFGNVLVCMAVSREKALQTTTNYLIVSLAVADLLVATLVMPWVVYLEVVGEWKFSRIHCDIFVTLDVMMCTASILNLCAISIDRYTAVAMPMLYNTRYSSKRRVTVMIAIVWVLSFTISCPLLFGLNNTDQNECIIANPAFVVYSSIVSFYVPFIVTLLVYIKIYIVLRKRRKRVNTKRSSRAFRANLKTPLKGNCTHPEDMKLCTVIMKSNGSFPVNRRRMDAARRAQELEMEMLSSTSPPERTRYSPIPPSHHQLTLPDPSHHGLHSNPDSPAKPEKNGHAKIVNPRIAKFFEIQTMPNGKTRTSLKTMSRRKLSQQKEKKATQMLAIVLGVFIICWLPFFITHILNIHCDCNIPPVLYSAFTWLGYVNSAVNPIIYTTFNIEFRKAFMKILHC

Regarding `COc1ccnc(N2CCN(CCCCOc3cnn(C)c(=O)n3)CC2)n1` [Compound 4, 5-[4-[4-(4-Methoxypyrimnidin-2-yl)piperazin-1-yl]butoxy]-2-methyl-2H-[1,2,4]triazin-3-one fumarate], the ED50 on 5-HT1A [1] (setting [4]) was 0.08 mg/kg; at 5-HT1A [1] (setting [5]), less than 0.04 mg/kg; on 5-HT1A [1] (setting [6]), 0.08 mg/kg. Also, the “pKi α1” value on α1-adrenergic receptor was determined as 6.74. In addition, the Ki at D2 dopaminergic receptor was 2240 nM; on 5-HT1A [2], 0.138 nM.
`Cn1ncc(OCCCCN2CCN(c3ncccn3)CC2)nc1=O` [Compound 1, 2-Methyl-5-[4-(4-pyrimidin-2-yl-piperazin-1-yl)butoxy]-2H-[1,2,4]triazin-3-one]: the ED50 turned out to be 0.08 mg/kg at 5-HT1A [1] (setting [4]), 0.02 mg/kg on 5-HT1A [1] (setting [5]) and 0.08 mg/kg on 5-HT1A [1] (setting [6]). Further, the “pKi α1” value at α1-adrenergic receptor was 6.25. For the same compound, the Ki at D2 dopaminergic receptor was 1580 nM; at 5-HT1A [2], 0.676 nM.
As for `Cn1ncc(OCC[C@H]2CC[C@@H]3CN(c4ncccn4)CCN3C2)nc1=O` (single isomer, unassigned) [Compound 26], the 50% effective dose (ED50) on 5-HT1A [1] (setting [4]) was less than 0.04 mg/kg; at 5-HT1A [1] (setting [5]), less than 0.04 mg/kg; at 5-HT1A [1] (setting [6]), 0.04 mg/kg; in assay [3], 0.04 mg/kg. Besides, the Ki on 5-HT1A [2] is 0.245 nM.
`COc1ccc(Cl)cc1N1CCN(CCCCOc2cnn(C)c(=O)n2)CC1` [Compound 19, 5-[4-[4-(5-Chloro-2-methoxyphenyl)-piperazin-1-yl]butoxyl-2-methyl-2H-[1,2,4]triazin-3-one fumarate]: the “pKi α1” value on α1-adrenergic receptor was 8.21. Further, the results for the Ki at D2 dopaminergic receptor and on 5-HT1A [2] were 15.1 nM and 0.309 nM, respectively.
`Cn1ncc(OCCCCN2CCN(c3ncc(F)cn3)CC2)nc1=O` [Compound 7, 5-[4-[4-(5-Fluoropyrimidin-2-yl)piperazin-1-yl]butoxy]-2-methyl-2H-[1,2,4]triazin-3-one]: the ED50 on 5-HT1A [1] (setting [4]) turned out to be 0.31 mg/kg; on 5-HT1A [1] (setting [5]) it was 0.08 mg/kg; on 5-HT1A [1] (setting [6]) it was 0.31 mg/kg. Moreover, at 5-HT1A [2], the Ki is 0.912 nM.
Turning to `Cc1ccnc(N2CCN(CCCCOc3cnn(C)c(=O)n3)CC2)n1.O=C(O)/C=C/C(=O)O` [Compound 2, 2-Methyl-5-[4-[4-(4-methylpyrimidin-2-yl)piperazin-1-yl]butoxy]-2H-[1,2,4]triazin-3-one fumarate], the ED50 on 5-HT1A [1] (setting [4]) stood at 0.08 mg/kg; on 5-HT1A [1] (setting [5]), 0.02 mg/kg; on 5-HT1A [1] (setting [6]), 0.08 mg/kg; in assay [3], 0.04 mg/kg. The “pKi α1” value on α1-adrenergic receptor stood at 6.11. Further, the values for the Ki at D2 dopaminergic receptor and on 5-HT1A [2] were 1740 nM and 0.269 nM, respectively.
In the case of `Cn1ncc(OCC[C@H]2CC[C@@H]3CN(c4ncccn4)CCN3C2)nc1=O` (relative stereo) [Compound 24, trans-2-Methyl-5-[2-(2-pyrimidin-2-yl-octahydropyrido[1,2-a]pyrazin-7-yl)ethoxy]-2H-[1,2,4]triazin-3-one], the ED50 on 5-HT1A [1] (setting [4]) was 0.08 mg/kg; on 5-HT1A [1] (setting [5]) it was less than 0.04 mg/kg; on 5-HT1A [1] (setting [6]), 0.08 mg/kg; in assay [3], 0.04 mg/kg. For the same compound, the “pKi α1” value on α1-adrenergic receptor was found to be 6.35. For the same compound, the values for the Ki at D2 dopaminergic receptor and on 5-HT1A [2] were 2880 nM and 0.525 nM, respectively.
In the case of `Cn1ncc(OCCCCNCC2COc3ccccc3O2)nc1=O` (stereo not shown) [Compound 20, 5-[4-((2,3-Dihydrobenzo[1,4]dioxin-2-ylmethyl)amino]butoxyl-2-methyl-2H-[1,2,4]triazin-3-one fumarate], the median effective dose (ED50) was 0.08 mg/kg at 5-HT1A [1] (setting [4]), less than 0.04 mg/kg at 5-HT1A [1] (setting [5]) and 0.31 mg/kg at 5-HT1A [1] (setting [6]). Moreover, the “pKi α1” value at α1-adrenergic receptor was determined as 7.65. Further, the Ki was 66.1 nM on D2 dopaminergic receptor and 0.107 nM on 5-HT1A [2].
Consider `Cn1ncc(OCCCCNC[C@@H]2COc3ccccc3O2)nc1=O` [Compound 21, (R)-5-[4-[(2,3-Dihydrobenzo[1,4]dioxin-2-ylmethyl)amino]butoxy)-2-methyl-2H-[1,2,4]triazin-3-one fumarate], for which the Ki at 5-HT1A [2] is 0.331 nM.
In the case of `O=C1CC2(CCCC2)CC(=O)N1CCCCN1CCN(c2ncccn2)CC1` [Buspirone, reference compound], the ED50 at 5-HT1A [1] (setting [6]) is more than 40 mg/kg; in assay [3] it was more than 160 mg/kg. In addition, on α1-adrenergic receptor, the “pKi α1” value is recorded as 6.19.
On to `Cn1ncc(OCCCCNC[C@H]2COc3ccccc3O2)nc1=O` [Compound 22, (S)-5-[4-[(2,3-Dihydrobenzo[1,4]dioxin-2-ylmethyl)amino]butoxy]-2-methyl-2H-[1,2,4]triazin-3-one fumarate], for which the Ki on 5-HT1A [2] is 0.0339 nM.
On to `O=C(NCCN1CCN(c2cccc3c2OC[C@H](CO)O3)CC1)c1ccc(F)cc1` [Flesinoxan, reference compound], for which the ED50 in assay [3] amounted to 1.25 mg/kg. Moreover, on α1-adrenergic receptor, the “pKi α1” value was 6.50.
Turning to `COc1cccnc1N1CCN(CCCCOc2cnn(C)c(=O)n2)CC1` [Compound 15, 5-[4-[4-(3-Methoxypyridin-2-yl)piperazin-1-yl]butoxy]-2-methyl-2H-[1,2,4]triazin-3-one fumarate], the Ki at 5-HT1A [2] was 0.263 nM.
With “5-[4-[4-(5-Chloro-2-methoxyphenyl)-piperazin-1-yl]butoxy]-2-methyl-2H- [1,2,4]triazin-3-one fumarate [Compound 17]”, the “5-HT syndrome ED50 FBP” value at 5-HT1A [1] (flat body posture (FBP)) worked out at 0.31 mg/kg. Moreover, the “5-HT syndrome ED50 LLR” value on 5-HT1A [1] (lower lip retraction (LLR)) worked out at 0.08 mg/kg. For the same compound, at 5-HT1A [1] (reciprocal fore-paw treading (FPT)), the “5-HT syndrome ED50 FPT” value worked out at 0.31 mg/kg. Moreover, on 5-HT1A [2] ([3H]8-OH-DPAT, rat cortex, 30 min, 23 °C, mean of at least 3 experimentations), the “pKi 5-HT1A” value is given as 9.89.
Take `Cn1ncc(OCCCCN2CCN(c3cccc(Cl)c3)CC2)nc1=O` [Compound 16, 5-[4-[4-(3-Chlorophenyl)piperazin-1-yl]Butoxy]-2-methyl-2H-[1,2,4]Triazin-3-one fumarate]: the Ki at 5-HT1A [2] was 0.0759 nM.
For the compound `Cn1ncc(OCCCCN2CCN(c3nccc(Cl)n3)CC2)nc1=O` [Compound 6, 5-[4-[4-(4-Chloropyrimidin-2-yl)piperazin-1-yl]butoxy]-2-methyl-2H-[1,2,4]triazin-3-one], the ED50 at 5-HT1A [1] (setting [4]) is 0.08 mg/kg; at 5-HT1A [1] (setting [5]) it was 0.08 mg/kg; on 5-HT1A [1] (setting [6]), 0.08 mg/kg; in assay [3], 0.63 mg/kg. Besides, on α1-adrenergic receptor, the “pKi α1” value is given as 6.25. The Ki on D2 dopaminergic receptor was 1700 nM; on 5-HT1A [2] it was 0.209 nM.
Take `Cc1cc(C)nc(N2CCN(CCCCOc3cnn(C)c(=O)n3)CC2)n1.O=C(O)/C=C/C(=O)O` [Compound 3, 5-[4-[4-(4,6-Dimethylpyrimidin-2-yl)piperazin-1-yl]butoxy]-2-methyl-2H-[1,2,4]triazin-3-one fumarate]: the ED50 on 5-HT1A [1] (setting [4]), at 5-HT1A [1] (setting [5]) and at 5-HT1A [1] (setting [6]) was 0.08 mg/kg each time. Also, the “pKi α1” value on α1-adrenergic receptor is 6.01. In addition, the results for the Ki at D2 dopaminergic receptor and on 5-HT1A [2] were 1120 nM and 0.275 nM, respectively.
